Assay results reported in paper PMC6222871, “Suppression of Hepatitis C Virus Genome Replication and Particle Production by a Novel Diacylglycerol Acyltransferases Inhibitor” (Molecules : A Journal of Synthetic Chemistry and Natural …, 2018).
Like-named read-outs stand apart in the source and are kept apart here.

Key:
[1] = tested on: HCV genotype 2a (Huh7.5-J6/JFH1); assay: HCV particle production: infectivity of supernatant on naive Huh7.5 cells by real-time RT-PCR; format: cell-based, hepatitis C virus; conditions: 10 μM
Experimental: A922500, a commercially available DGAT-1-specific inhibitor was used as a positive control [10]. […] Therefore, we decided to examine effects of these twelve DGAT inhibitors on HCV particle production as well as RNA genome replication in parallel. For this purpose, we transfected Huh7.5 cells with in vitro-transcribed genotype 2a HCV RNAs (Huh7.5-J6/JFH1) [16] and treated them with each DGAT inhibitor for 6 and 72 h at 10 μM. HCV genome replication as well as host GAPDH RNA levels was quantitated by a real-time RT-PCR analysis. For assessment of HCV particle production, we harvested and filtered the supernatant from Huh7.5-J6/JFH1 cells treated with DGAT inhibitors and incubated the supernatant with naïve huh7.5 cells for 72 h. Then, infectivity was measured by a real-time RT-PCR analysis.
Huh7.5-J6/JFH-1 cells were seeded into 6-well plates at a density of 3 × 10^5 cells per well with DMEM containing 10% FBS. […] Total RNAs were extracted from treated cells and virus-containing media were harvested at each time point. Naïve Huh7.5 cells were infected with these virus-containing media after concentration with centricons.

[2] = tested on: luciferase-linked genotype 2a HCV RNAs; assay: microbe, parasite or virus in culture; format: cell-based, hepatitis C virus; conditions: read-out: EC50 (HCV replication)
Experimental: (§1) To order to study impacts of DGAT inhibitors on HCV genome replication independently of the particle production, we decided to examine effects of these twelve DGAT inhibitors on the levels of viral RNA genome and cell viability in parallel. […] Then, we treated them with an increasing concentration of each DGAT inhibitor. Then, luciferase and MTT-based cell viability assays were performed to determine EC50 and CC50 (cytotoxic concentration required to kill 50% of treated cells) values, respectively.
(§2) Cell viability was measured with EZ-CYTOX (10% tetrazolium salt; Dogen, Gyeonggi-do, Korea) as described previously. Anti-HCV replication analysis using a luciferase assay was conducted as previously described.

[3] = MTT-based cell viability assay (EZ-CYTOX); conditions: human
Experimental: as §1, §2

[4] = tested on: recombinant DGAT-1; set-up: method as in PMID 23242135; conditions: recombinant DGAT-1, [14C] oleoyl-CoA as acyl-donor; cited from earlier work
[5] = tested on: recombinant DGAT-2; set-up: method as in PMID 23242135; conditions: cited from earlier work
[6] = tested on: HepG2 cells; set-up: method as in PMID 23242135; conditions: [14C] glycerol as substrate; cited from earlier work
[7] = tested on: DGATs (rat liver microsome); set-up: method as in PMID 23141914, PMID 23242135; conditions: cited from earlier work
[8] = tested on: HCV NS3 (Huh7.5-J6/JFH1, genotype 2a); assay: western blot of HCV NS3 protein in Huh7.5-J6/JFH1 cells; conditions: positive control
Experimental: Due to the tight coupling of viral genome replication to its protein expression, inhibition of viral RNA genome replication leads to a subsequent reduction of viral protein expression.
(A) Dose-dependent western blot analysis of Huh7.5-J6/JFH1 cells treated with increasing concentrations of 10j for 72 h by measuring protein expression levels of HCV NS3 relative to the β-actin. Daclatasvir, an NS5A inhibitor was used as a positive control. (B) Time-dependent western blot analysis of J6/JFH1 RNA-transfected Huh7.5 cells treated with 8 μM of 10j for increasing periods of time analyzed by measuring protein expression levels of HCV NS3 relative to the β-actin. (C,D) Same experiments were performed as in (A,B) to study effects of 10j on the expression levels of the NS5A protein of Huh7.5-Bart79I cells in a dose- as well as time-dependent manners.
Western blot analysis of Huh7.5-J6/JFH1 or Bart79I cells treated with 10j was conducted as previously described. Relative amounts of HNF4α proteins were quantified by using an HNF4α mouse monoclonal antibody (M04), clone 4E2 (Abnova) with the dilution of 1:1000.

[9] = Hepatitis C virus, Huh7.5, luciferase-linked genotype 2a HCV RNA in Huh7.5 cells

| SMILES | effect on HCV particle production ([1]; 72 h (Figure 1D)) | EC50 [2, 9] | CC50 [3] | IC50 [4] | IC50 [5] | TG % (10 μM in HepG2), relative [14C] triglyceride percentage [6] | IC50 [7] | EC50 ([2]; luciferase-linked genotype 2a HCV RNA in Huh7.5 cells) | expression of viral proteins [8] | effect on HCV particle production ([1]; 6 h (Figure 1B)) |
| --- | --- | --- | --- | --- | --- | --- | --- | --- | --- | --- |
| CC(C)=CCn1cc(/C=C/C(=O)N(NC(=O)c2cccc(F)c2)C(C)C)c2ccccc21 [8u] | suppress the viral particle production | > 10 µM | > 10 µM | 1.5 µM | > 10 µM | 55.7% | – | – | – | – |
| CC(C)CCn1cc(/C=C/C(=O)N(NC(=O)c2cccc(F)c2)C(C)C)c2ccccc21 [8h] | suppress the viral particle production | 6.7 µM | > 10 µM | 20.4 µM | > 10 µM | 71.2% | – | – | – | – |
| CC(C)(C)OC(=O)n1cc(/C=C/C(=O)Nc2cccc(C(=O)N3CCCC3)c2)c2ccccc21 [5c] | suppress the viral particle production | > 10 µM | > 10 µM | 89.1 µM | 6.8 µM | – | 13.2 µM | – | – | – |
| CC(C)CCn1cc(/C=C/C(=O)N(NC(=O)c2ccc(F)cc2)C(C)C)c2ccccc21 [8i] | suppress the viral particle production | 5.1 µM | > 10 µM | 2.1 µM | > 10 µM | 94.8% | – | – | – | – |
| O=C(NCc1ccccc1)c1ccc2nc(COc3ccc(C45CC6CC(CC(C6)C4)C5)cc3)[nH]c2c1 [10h] | – | < 10 µM | > 10 µM | – | – | – | > 50 µM | 7.7 µM | – | – |
| Cc1ccc(CNC(=O)c2cccc(NC(=O)/C=C/c3cn(C(=O)OC(C)(C)C)c4ccccc34)c2)o1 [5j] | suppress the viral particle production | 1.1 µM | 3.4 µM | > 100 µM | 7.4 µM | – | 9.4 µM | – | – | – |
| O=C(c1ccc2nc(COc3ccc(C45CC6CC(CC(C6)C4)C5)cc3)[nH]c2c1)N1CCCCC1 [10e] | – | > 10 µM | > 10 µM | – | – | – | 27.5 µM | – | – | – |
| COC(=O)N[C@H](C(=O)N1CCC[C@H]1c1nc(-c2ccc(-c3ccc(-c4c[nH]c([C@@H]5CCCN5C(=O)[C@@H](NC(=O)OC)C(C)C)n4)cc3)cc2)c[nH]1)C(C)C [Daclatasvir, reference compound] | – | – | – | – | – | – | – | – | able to inhibit expression of viral proteins | – |
| O=C(Nc1ccccc1)c1ccc2nc(COc3ccc(C45CC6CC(CC(C6)C4)C5)cc3)[nH]c2c1 [10f] | – | > 10 µM | > 10 µM | – | – | – | > 50 µM | – | – | – |
| CC(C)NC(=O)c1cccc(NC(=O)/C=C/c2cn(C(=O)OC(C)(C)C)c3ccccc23)c1 [5a] | suppress the viral particle production | 1.9 µM | 3.7 µM | > 100 µM | 6.9 µM | – | 8.8 µM | – | – | able to block HCV particle production |
| O=C(NCc1ccccn1)c1ccc2nc(COc3ccc(C45CC6CC(CC(C6)C4)C5)cc3)[nH]c2c1 [10i] | – | – | 3.9 µM | – | – | – | 20 µM | – | – | – |
| CC(C)(C)OC(=O)n1cc(/C=C/C(=O)Nc2cccc(C(=O)NCc3ccco3)c2)c2ccccc21 [5h] | suppress the viral particle production | 2.1 µM | 5.1 µM | > 100 µM | 6.9 µM | 33.2% | 2.5 µM | – | – | able to block HCV particle production |
